The source of these data is patent US8530489B2 (Vertex Pharmaceuticals Incorporated, priority 2006, dated 2013).

The assay deals with PLK1 (Homo sapiens, UniProt P53350). The assay can be described thus: PLK1 Inhibition Assay I (radioactive-phosphate incorporation). Type of assay: biochemical. The conditions noted are these: Ki(app); PLK1 Inhibition Assay I or II (table does not say which). On the procedure: The compounds of the present invention are evaluated as inhibitors of human PLK kinase using the following assays.
Compounds were screened for their ability to inhibit PLK1 using a radioactive-phosphate incorporation assay. Assays were carried out in a mixture of 25 mM HEPES (pH 7.5), 10 mM MgCl2, and 1 mM DTT. Final substrate concentrations were 350 μM [γ-33P]ATP (136 mCi 33P ATP/mmol ATP, Amersham Pharmacia Biotech/Sigma Chemicals) and 450 μM peptide (KKKISDELMDATFADQEAK) [SEQ. ID:1]. Assays were carried out at 25° C. in the presence of 2 nM PLK1. An assay stock buffer solution was prepared containing all of the reagents listed above, with the exception of ATP and the test compound of interest. 30 μL of the stock solution was placed in a 96 well plate followed by addition of 2 μL of DMSO stock containing serial dilutions of the test compound (typically starting from a final concentration of 10 μM with 2-fold serial dilutions) in duplicate (final DMSO concentration 5%). The plate was pre-incubated for 10 minutes at 25° C. and the reaction initiated by addition of 8 μL [γ-33P]ATP (final concentration 350 μM).
The reaction was stopped after 240 minutes by the addition of 100 μL 0.14M phosphoric acid. A multiscreen phosphocellulose filter 96-well plate (Millipore, Cat No. MAPHN0B50) was pretreated with 100 μL 0.1 M phosphoric acid prior to the addition of 125 μL of the stopped assay mixture. The plate was washed with 4×200 μL 0.1 M phosphoric acid. After drying, 100 μL Optiphase ‘SuperMix’ liquid scintillation cocktail (Perkin Elmer) was added to the well prior to scintillation counting (1450 Microbeta Liquid Scintillation Counter, Wallac).
After removing mean background values for all of the data points, Ki(app) data were calculated from non-linear regression analysis of the initial rate data using the Prism software package (GraphPad Prism version 3.0cx for Macintosh, GraphPad Software, San Diego Calif., USA).

Sequence of PLK1 (P53350 whole entry): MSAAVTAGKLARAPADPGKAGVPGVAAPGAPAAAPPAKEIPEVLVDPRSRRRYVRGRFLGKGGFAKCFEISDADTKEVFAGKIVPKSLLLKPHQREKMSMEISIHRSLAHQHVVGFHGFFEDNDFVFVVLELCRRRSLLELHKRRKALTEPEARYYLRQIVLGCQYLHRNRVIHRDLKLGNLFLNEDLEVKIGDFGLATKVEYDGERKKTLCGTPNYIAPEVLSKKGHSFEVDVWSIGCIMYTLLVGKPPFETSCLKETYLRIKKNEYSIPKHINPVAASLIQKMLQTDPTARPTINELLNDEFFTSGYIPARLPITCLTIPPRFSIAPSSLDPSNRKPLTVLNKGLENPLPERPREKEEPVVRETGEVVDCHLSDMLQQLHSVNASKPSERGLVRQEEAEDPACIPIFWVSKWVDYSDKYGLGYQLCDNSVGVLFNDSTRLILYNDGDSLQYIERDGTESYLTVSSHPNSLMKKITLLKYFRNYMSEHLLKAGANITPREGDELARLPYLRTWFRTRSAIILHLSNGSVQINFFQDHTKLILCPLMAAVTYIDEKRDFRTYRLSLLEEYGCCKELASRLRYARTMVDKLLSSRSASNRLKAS

Take `CC(C)(Nc1ncc(C#N)c(-c2c[nH]c3ncc(Cl)cc23)n1)C(=O)NCCC(F)(F)F`: the Ki is above 40 nM. Consider `C[C@@H](Nc1ncc(C#N)c(-c2c[nH]c3ncc(C(F)(F)F)cc23)n1)[C@H]1CC[C@H](NS(C)(=O)=O)CC1` (single isomer, unassigned) [Compound I-202], for which the Ki was below 3 nM.

Turning to `C[C@@H](Nc1ncc(C#N)c(-c2c[nH]c3ncc(C(F)(F)F)cc23)n1)[C@H]1CC[C@@H](NS(C)(=O)=O)CC1` (single isomer, unassigned) [Compound I-203], the Ki was below 3 nM. In the case of `N#Cc1cnc(NCc2ccccc2)nc1-c1c[nH]c2ncc(C(F)(F)F)cc12` [Compound I-1, 2-(benzylamino)-4-(5-(trifluoromethyl)-1H-pyrrolo[2,3-b]pyridin-3-yl)pyrimidine-5-carbonitrile] it was above 40 nM; in that of `CNc1ncc(C#N)c(-c2c[nH]c3ncc(C(F)(F)F)cc23)n1` [Compound I-2, 2-(methylamino)-4-(5-(trifluoromethyl)-1H-pyrrolo[2,3-b]pyridin-3-yl)pyrimidine-5-carbonitrile], above 40 nM; in that of `CC(C)Nc1ncc(C#N)c(-c2c[nH]c3ncc(C(F)(F)F)cc23)n1` [Compound I-3, 2-(isopropylamino)-4-(5-(trifluoromethyl)-1H-pyrrolo[2,3-b]pyridin-3-yl)pyrimidine-5-carbonitrile], 3 to 40 nM. As for `CC(C)(C)Nc1ncc(C#N)c(-c2c[nH]c3ncc(C(F)(F)F)cc23)n1` [Compound I-4, 2-(tert-butylamino)-4-(5-(trifluoromethyl)-1H-pyrrolo[2,3-b]pyridin-3-yl)pyrimidine-5-carbonitrile], the Ki was above 40 nM. In the case of `C[C@H](Nc1ncc(C#N)c(-c2c[nH]c3ncc(C(F)(F)F)cc23)n1)c1ccccc1` [Compound I-5, 2-((S)-1-phenylethylamino)-4-(5-(trifluoromethyl)-1H-pyrrolo[2,3-b]pyridin-3-yl)pyrimidine-5-carbonitrile] it was above 40 nM; in that of `C[C@@H](Nc1ncc(C#N)c(-c2c[nH]c3ncc(C(F)(F)F)cc23)n1)c1ccccc1` [Compound I-6, 2-((R)-1-phenylethylamino)-4-(5-(trifluoromethyl)-1H-pyrrolo[2,3-b]pyridin-3-yl)pyrimidine-5-carbonitrile], below 3 nM. In the case of `N#Cc1cnc(NCCc2ccccc2)nc1-c1c[nH]c2ncc(C(F)(F)F)cc12` [Compound I-7, 2-(phenethylamino)-4-(5-(trifluoromethyl)-1H-pyrrolo[2,3-b]pyridin-3-yl)pyrimidine-5-carbonitrile] it was above 40 nM; in that of `CN(Cc1ccccc1)c1ncc(C#N)c(-c2c[nH]c3ncc(C(F)(F)F)cc23)n1` [Compound I-8, 2-(benzyl(methyl)amino)-4-(5-(trifluoromethyl)-1H-pyrrolo[2,3-b]pyridin-3-yl)pyrimidine-5-carbonitrile], above 40 nM; in that of `CC(C)(Nc1ncc(C#N)c(-c2c[nH]c3ncc(C(F)(F)F)cc23)n1)c1ccccc1` [Compound I-9, 2-(2-phenylpropan-2-ylamino)-4-(5-(trifluoromethyl)-1H-pyrrolo[2,3-b]pyridin-3-yl)pyrimidine-5-carbonitrile], 3 to 40 nM. In the case of `N#Cc1cnc(NC2CCCCC2)nc1-c1c[nH]c2ncc(C(F)(F)F)cc12` [Compound I-10, 2-(cyclohexylamino)-4-(5-(trifluoromethyl)-1H-pyrrolo[2,3-b]pyridin-3-yl)pyrimidine-5-carbonitrile] it was 3 to 40 nM; in that of `CCN(Cc1ccccc1)c1ncc(C#N)c(-c2c[nH]c3ncc(C(F)(F)F)cc23)n1` [Compound I-11, 2-(benzyl(ethyl)amino)-4-(5-(trifluoromethyl)-1H-pyrrolo[2,3-b]pyridin-3-yl)pyrimidine-5-carbonitrile], above 40 nM. In the case of `COc1ccc(CNc2ncc(C#N)c(-c3c[nH]c4ncc(C(F)(F)F)cc34)n2)cc1` [Compound I-12, 2-(4-methoxybenzylamino)-4-(5-(trifluoromethyl)-1H-pyrrolo[2,3-b]pyridin-3-yl)pyrimidine-5-carbonitrile], the Ki was above 40 nM. For `N#Cc1cnc(NCc2cccc(Cl)c2)nc1-c1c[nH]c2ncc(C(F)(F)F)cc12` [Compound I-13, 2-(3-chlorobenzylamino)-4-(5-(trifluoromethyl)-1H-pyrrolo[2,3-b]pyridin-3-yl)pyrimidine-5-carbonitrile], the Ki was above 40 nM. `N#Cc1cnc(NCc2cccnc2)nc1-c1c[nH]c2ncc(C(F)(F)F)cc12` [Compound I-14, 2-(pyridin-3-ylmethylamino)-4-(5-(trifluoromethyl)-1H-pyrrolo[2,3-b]pyridin-3-yl)pyrimidine-5-carbonitrile]: the Ki fell in the range of 3 to 40 nM. On to `COc1ccccc1CNc1ncc(C#N)c(-c2c[nH]c3ncc(C(F)(F)F)cc23)n1` [Compound I-15, 2-(2-methoxybenzylamino)-4-(5-(trifluoromethyl)-1H-pyrrolo[2,3-b]pyridin-3-yl)pyrimidine-5-carbonitrile], for which the Ki is above 40 nM. In the case of `CCC(Nc1ncc(C#N)c(-c2c[nH]c3ncc(C(F)(F)F)cc23)n1)c1ccccc1` (stereo not drawn) [Compound I-16, 2-(1-phenylpropylamino)-4-(5-(trifluoromethyl)-1H-pyrrolo[2,3-b]pyridin-3-yl)pyrimidine-5-carbonitrile] it was 3 to 40 nM. In the case of `N#Cc1cnc(NCc2ccccc2Cl)nc1-c1c[nH]c2ncc(C(F)(F)F)cc12` [Compound I-17, 2-(2-chlorobenzylamino)-4-(5-(trifluoromethyl)-1H-pyrrolo[2,3-b]pyridin-3-yl)pyrimidine-5-carbonitrile] it was above 40 nM. In the case of `N#Cc1cnc(NCc2cccc(F)c2)nc1-c1c[nH]c2ncc(C(F)(F)F)cc12` [Compound I-18, 2-(3-fluorobenzylamino)-4-(5-(trifluoromethyl)-1H-pyrrolo[2,3-b]pyridin-3-yl)pyrimidine-5-carbonitrile] it was 3 to 40 nM. Consider `N#Cc1cnc(NCc2ccc(Cl)cc2)nc1-c1c[nH]c2ncc(C(F)(F)F)cc12` [Compound I-19, 2-(4-chlorobenzylamino)-4-(5-(trifluoromethyl)-1H-pyrrolo[2,3-b]pyridin-3-yl)pyrimidine-5-carbonitrile], for which the Ki is above 40 nM. In the case of `COc1cccc(CNc2ncc(C#N)c(-c3c[nH]c4ncc(C(F)(F)F)cc34)n2)c1` [Compound I-20, 2-(3-methoxybenzylamino)-4-(5-(trifluoromethyl)-1H-pyrrolo[2,3-b]pyridin-3-yl)pyrimidine-5-carbonitrile] it was above 40 nM. In the case of `N#Cc1cnc(NCc2ccccc2F)nc1-c1c[nH]c2ncc(C(F)(F)F)cc12` [Compound I-21, 2-(2-fluorobenzylamino)-4-(5-(trifluoromethyl)-1H-pyrrolo[2,3-b]pyridin-3-yl)pyrimidine-5-carbonitrile] it was above 40 nM; in that of `N#Cc1cnc(NCc2ccc(F)cc2)nc1-c1c[nH]c2ncc(C(F)(F)F)cc12` [Compound I-22, 2-(4-fluorobenzylamino)-4-(5-(trifluoromethyl)-1H-pyrrolo[2,3-b]pyridin-3-yl)pyrimidine-5-carbonitrile], above 40 nM; in that of `N#Cc1cnc(NCc2ccncc2)nc1-c1c[nH]c2ncc(C(F)(F)F)cc12` [Compound I-23, 2-(pyridin-4-ylmethylamino)-4-(5-(trifluoromethyl)-1H-pyrrolo[2,3-b]pyridin-3-yl)pyrimidine-5-carbonitrile], above 40 nM. In the case of `CC(C)C(C)Nc1ncc(C#N)c(-c2c[nH]c3ncc(C(F)(F)F)cc23)n1` (stereo not drawn) [Compound I-24, 2-(3-methylbutan-2-ylamino)-4-(5-(trifluoromethyl)-1H-pyrrolo[2,3-b]pyridin-3-yl)pyrimidine-5-carbonitrile] it was 3 to 40 nM. Take `N#Cc1cnc(Nc2ccccc2)nc1-c1c[nH]c2ncc(C(F)(F)F)cc12` [Compound I-25, 2-(phenylamino)-4-(5-(trifluoromethyl)-1H-pyrrolo[2,3-b]pyridin-3-yl)pyrimidine-5-carbonitrile]: the Ki is 3 to 40 nM. In the case of `COc1ccc([C@@H](C)Nc2ncc(C#N)c(-c3c[nH]c4ncc(C(F)(F)F)cc34)n2)cc1` [Compound I-26, 2-((R)-1-(4-methoxyphenyl)ethylamino)-4-(5-(trifluoromethyl)-1H-pyrrolo[2,3-b]pyridin-3-yl)pyrimidine-5-carbonitrile] it was below 3 nM.

`N#Cc1cnc(NC2CC2c2ccccc2)nc1-c1c[nH]c2ncc(C(F)(F)F)cc12` (stereo not drawn) [Compound I-27, 2-(2-phenylcyclopropylamino)-4-(5-(trifluoromethyl)-1H-pyrrolo[2,3-b]pyridin-3-yl)pyrimidine-5-carbonitrile]: the Ki is above 40 nM.
